Measured values published in patent US12622910B2, “Inhibitors of Bruton's tyrosine kinase and methods of their use” (Janssen Pharmaceutica NV, priority 2021, dated 2026).

Experiment: Phase 1 first-in-human study, safety (TEAEs)
Type: in vivo
From the text: Study Participants—Volunteers aged 18-58 years, with a body mass index (BMI) of 18-30 kg/m^2, body weight ≥50 kg, and who were considered healthy based on medical history, physical examination, clinical laboratory evaluation, and 12-lead electrocardiogram (ECG) were enrolled in this study. Females were required to be surgically sterile or postmenopausal. Key exclusion criteria were history of, or current, clinically significant medical illness and history of malignancy within 5 years.
Study Design—This phase 1, randomized, double-blind, placebo-controlled, single-center study (NCT03607513; EudraCT 2018-000428-32) was conducted between July 2018 and August 2019 at the Janssen Clinical Pharmacology Unit in Merksem, Belgium.The study comprised two distinct parts; Part 1 examined SAD of compound of Formula (III) and Part 2 assessed MAD of compound of Formula (III).
Safety, tolerability, PK, and BTKO were assessed for six doses of compound of Formula (III) oral solution (4, 12, 36, 100, 200, 400 mg) in participants under fasted conditions. The SAD part comprised 10 cohorts of 8 participants each (FIG. 1). In each cohort receiving compound of Formula (III) oral solution (Cohorts 1-9), 6 participants were randomized to receive compound of Formula (III) and 2 to receive placebo. All participants in Cohort 10 received compound of Formula (III) as an oral capsule. All 10 cohorts included 2 sentinel participants who were dosed ˜24 hours prior to the rest of the cohort. In cohorts receiving compound of Formula (III) oral solution, 1 sentinel participant received compound of Formula (III) and the other received placebo.
Six male escalating dose cohorts received a single oral dose of 4, 12, 36, 100, 200, 400 mg compound of Formula (III) or placebo solution under fasted conditions. Gender effects were assessed in 2 female cohorts whose participants received either a 36 or 100 mg dose of compound of Formula (III) or placebo as an oral solution under fasted conditions. Food effects were evaluated in a male cohort receiving compound of Formula (III) 100 mg or placebo as an oral solution after a high-fat breakfast.
Safety, tolerability, and PK of a solid dose formulation of compound of Formula (III) were assessed in an additional male cohort (Cohort 10) that received 3×35 mg (105 mg) of compound of Formula (III) in the fasted state. Since all the participants received the same dose of compound of Formula (III), this cohort was not blinded.
Safety, tolerability, PK, and BTKO following multiple compound of Formula (III) doses were evaluated in 3 dose escalation cohorts with a total of 18 participants (males: 9, females: 9) receiving active study drug. In each cohort, 3 males and 3 females were randomized to receive 36 mg once-daily (QD), 100 mg QD, or 200 mg QD compound of Formula (III) oral solution and 3 participants (males: 2; female: 1) to receive placebo. Two male participants in each cohort served as sentinel participants: one received compound of Formula (III) and other received placebo ˜48 hours prior to other participants in the cohort. All safety and tolerability data (through the follow-up visit), PK data (through at least 24 hours after last dose administration), and all available PD data were reviewed from each cohort before a decision was made to dose escalate.
Safety—Safety evaluations were based upon the type, incidence, and severity of treatment-emergent adverse events (TEAEs) reported throughout the study, and concomitant medication reporting, clinical laboratory tests, physical examinations, vital sign measurements, and ECGs assessed at pre-defined time points. The TEAEs and serious TEAEs were coded using the Medical Dictionary for Regulatory Activities (MedDRA Version 21.0) and summarized by system-organ class (SOC) and preferred terms.

C=CC(=O)N[C@H]1CCC[C@H]1NC(=O)c1sc2nccc3c2c1NC(=O)N3c1cnc(CC(C)C)cc1C (atropisomer, axis not shown) [compound of Formula (III), N-((1R,2S)-2-Acrylamidocyclopentyl)-5-(S)-(6-isobutyl-4-methylpyridin-3-yl)-4-oxo-4,5-dihydro-3H-1-thia-3,5,8-triazaacenaphthylene-2-carboxamide]
Administration site irritation, n (%) (Part 1, 4 mg fasted): 1
Headache, n (%) (Part 1, 4 mg fasted): 1
Patients with ≥1 TEAEs, n (%) (Part 1, 4 mg fasted): 2
Administration site irritation, n (%) (Part 1, 12 mg fasted): 0
Headache, n (%) (Part 1, 12 mg fasted): 2
Patients with ≥1 TEAEs, n (%) (Part 1, 12 mg fasted): 3
Administration site irritation, n (%) (Part 1, 36 mg fasted): 0
Headache, n (%) (Part 1, 36 mg fasted): 2
Patients with ≥1 TEAEs, n (%) (Part 1, 36 mg fasted): 4
Administration site irritation, n (%) (Part 1, 100 mg fasted): 0
Headache, n (%) (Part 1, 100 mg fasted): 0
Patients with ≥1 TEAEs, n (%) (Part 1, 100 mg fasted): 4
Administration site irritation, n (%) (Part 1, 100 mg fed): 0
Headache, n (%) (Part 1, 100 mg fed): 1
Patients with ≥1 TEAEs, n (%) (Part 1, 100 mg fed): 1
Administration site irritation, n (%) (Part 1, 105 mg solid): 0
Headache, n (%) (Part 1, 105 mg solid): 1
Patients with ≥1 TEAEs, n (%) (Part 1, 105 mg solid): 3
Administration site irritation, n (%) (Part 1, 200 mg fasted): 1
Headache, n (%) (Part 1, 200 mg fasted): 1
Patients with ≥1 TEAEs, n (%) (Part 1, 200 mg fasted): 4
Administration site irritation, n (%) (Part 1, 400 mg fasted): 0
Headache, n (%) (Part 1, 400 mg fasted): 0
Patients with ≥1 TEAEs, n (%) (Part 1, 400 mg fasted): 3
headache, incidence (Part 1, all treated): 13.3%
nasal congestion, incidence (Part 1, all treated): 5%
Administration site irritation, n (%) (Part 1, total N = 60): 2(3.3)
Headache, n (%) (Part 1, total N = 60): 8 (13.3)
Abdominal discomfort, n (%) (Part 2, 36 mg): 1 (16.7)
Abdominal pain, n (%) (Part 2, 36 mg): 0
Abnormal dreams, n (%) (Part 2, 36 mg): 0
Administration site irritation, n (%) (Part 2, 36 mg): 1 (16.7)
Back pain, n (%) (Part 2, 36 mg): 1 (16.7)
Cough, n (%) (Part 2, 36 mg): 0
Dehydration, n (%) (Part 2, 36 mg): 0
Diarrhea, n (%) (Part 2, 36 mg): 0
Dizziness, n (%) (Part 2, 36 mg): 0
Dysgeusia, n (%) (Part 2, 36 mg): 0
Fatigue, n (%) (Part 2, 36 mg): 0
Flatulence, n (%) (Part 2, 36 mg): 1 (16.7)
Headache, n (%) (Part 2, 36 mg): 0
Hot flush, n (%) (Part 2, 36 mg): 0
Increased bronchial secretion, n (%) (Part 2, 36 mg): 0
Injection site hematoma, n (%) (Part 2, 36 mg): 0
Injection site reaction, n (%) (Part 2, 36 mg): 1 (16.7)
Lipase increased, n (%) (Part 2, 36 mg): 0
Myalgia, n (%) (Part 2, 36 mg): 0
Nasopharyngitis, n (%) (Part 2, 36 mg): 0
Nausea, n (%) (Part 2, 36 mg): 0
Oral dysaesthesia, n (%) (Part 2, 36 mg): 0
Oropharyngeal pain, n (%) (Part 2, 36 mg): 0
Paresthesia, n (%) (Part 2, 36 mg): 2 (33.3)
Patients with ≥1 TEAEs, n (%) (Part 2, 36 mg): 4 (66.7)
Regurgitation, n (%) (Part 2, 36 mg): 1 (16.7)
Skin irritation, n (%) (Part 2, 36 mg): 0
Skin reaction, n (%) (Part 2, 36 mg): 1 (16.7)
Somnolence, n (%) (Part 2, 36 mg): 0
Vertigo, n (%) (Part 2, 36 mg): 0
Vessel puncture site hematoma, n (%) (Part 2, 36 mg): 0
Vision blurred, n (%) (Part 2, 36 mg): 0
Abdominal discomfort, n (%) (Part 2, 100 mg): 1 (16.7)
Abdominal pain, n (%) (Part 2, 100 mg): 0
Abnormal dreams, n (%) (Part 2, 100 mg): 0
Administration site irritation, n (%) (Part 2, 100 mg): 2 (33.3)
Back pain, n (%) (Part 2, 100 mg): 0
Cough, n (%) (Part 2, 100 mg): 0
Dehydration, n (%) (Part 2, 100 mg): 0
Diarrhea, n (%) (Part 2, 100 mg): 1 (16.7)
Dizziness, n (%) (Part 2, 100 mg): 0
Dysgeusia, n (%) (Part 2, 100 mg): 0
Fatigue, n (%) (Part 2, 100 mg): 0
Flatulence, n (%) (Part 2, 100 mg): 0
Headache, n (%) (Part 2, 100 mg): 0
Hot flush, n (%) (Part 2, 100 mg): 1 (16.7)
Increased bronchial secretion, n (%) (Part 2, 100 mg): 0
Injection site hematoma, n (%) (Part 2, 100 mg): 2 (33.3)
Injection site reaction, n (%) (Part 2, 100 mg): 1 (16.7)
Lipase increased, n (%) (Part 2, 100 mg): 0
Myalgia, n (%) (Part 2, 100 mg): 1 (16.7)
Nasopharyngitis, n (%) (Part 2, 100 mg): 0
Nausea, n (%) (Part 2, 100 mg): 0
Oral dysaesthesia, n (%) (Part 2, 100 mg): 0
Oropharyngeal pain, n (%) (Part 2, 100 mg): 0
Paresthesia, n (%) (Part 2, 100 mg): 0
Patients with ≥1 TEAEs, n (%) (Part 2, 100 mg): 5 (83.3)
Regurgitation, n (%) (Part 2, 100 mg): 0
Skin irritation, n (%) (Part 2, 100 mg): 0
Skin reaction, n (%) (Part 2, 100 mg): 0
Somnolence, n (%) (Part 2, 100 mg): 1 (16.7)
Vertigo, n (%) (Part 2, 100 mg): 0
Vessel puncture site hematoma, n (%) (Part 2, 100 mg): 1 (16.7)
Vision blurred, n (%) (Part 2, 100 mg): 0
Abdominal discomfort, n (%) (Part 2, 200 mg): 0
Abdominal pain, n (%) (Part 2, 200 mg): 1 (16.7)
Abnormal dreams, n (%) (Part 2, 200 mg): 0
Administration site irritation, n (%) (Part 2, 200 mg): 0
Back pain, n (%) (Part 2, 200 mg): 0
Cough, n (%) (Part 2, 200 mg): 0
Dehydration, n (%) (Part 2, 200 mg): 0
Diarrhea, n (%) (Part 2, 200 mg): 0
Dizziness, n (%) (Part 2, 200 mg): 1 (16.7)
Dysgeusia, n (%) (Part 2, 200 mg): 0
Fatigue, n (%) (Part 2, 200 mg): 1 (16.7)
Flatulence, n (%) (Part 2, 200 mg): 0
Headache, n (%) (Part 2, 200 mg): 1 (16.7)
Hot flush, n (%) (Part 2, 200 mg): 1 (16.7)
Increased bronchial secretion, n (%) (Part 2, 200 mg): 0
Injection site hematoma, n (%) (Part 2, 200 mg): 0
Injection site reaction, n (%) (Part 2, 200 mg): 0
Lipase increased, n (%) (Part 2, 200 mg): 0
Myalgia, n (%) (Part 2, 200 mg): 0
Nasopharyngitis, n (%) (Part 2, 200 mg): 0
Nausea, n (%) (Part 2, 200 mg): 0
Oral dysaesthesia, n (%) (Part 2, 200 mg): 0
Oropharyngeal pain, n (%) (Part 2, 200 mg): 0
Paresthesia, n (%) (Part 2, 200 mg): 0
Patients with ≥1 TEAEs, n (%) (Part 2, 200 mg): 5 (83.3)
Regurgitation, n (%) (Part 2, 200 mg): 1 (16.7)
Skin irritation, n (%) (Part 2, 200 mg): 0
Skin reaction, n (%) (Part 2, 200 mg): 1 (16.7)
Somnolence, n (%) (Part 2, 200 mg): 0
Vertigo, n (%) (Part 2, 200 mg): 0
Vessel puncture site hematoma, n (%) (Part 2, 200 mg): 0
Vision blurred, n (%) (Part 2, 200 mg): 1 (16.7)
participants discontinued due to a TEAE (mild transaminases increased) (Part 2, 200 mg group, after 8 days): 1
abdominal discomfort, back pain, hot flush, paresthesia, regurgitation, skin reaction: incidence of each (Part 2, all treated [2/18]): 11.1%
administration site irritation, incidence (Part 2, all treated [3/18]): 16.7%
Abdominal discomfort, n (%) (Part 2, total N = 18): 2 (11.1)
Abdominal pain, n (%) (Part 2, total N = 18): 1 (5.6)
Abnormal dreams, n (%) (Part 2, total N = 18): 0
Administration site irritation, n (%) (Part 2, total N = 18): 3 (16.7)
Back pain, n (%) (Part 2, total N = 18): 1 (16.7)
Cough, n (%) (Part 2, total N = 18): 0
Dehydration, n (%) (Part 2, total N = 18): 0
Diarrhea, n (%) (Part 2, total N = 18): 1 (5.6)
Dizziness, n (%) (Part 2, total N = 18): 1 (5.6)
Dysgeusia, n (%) (Part 2, total N = 18): 0
Fatigue, n (%) (Part 2, total N = 18): 1 (5.6)
Flatulence, n (%) (Part 2, total N = 18): 1 (5.6)
Headache, n (%) (Part 2, total N = 18): 1 (5.6)
Hot flush, n (%) (Part 2, total N = 18): 2 (11.1)
Increased bronchial secretion, n (%) (Part 2, total N = 18): 0
Injection site hematoma, n (%) (Part 2, total N = 18): 2 (11.1)
Injection site reaction, n (%) (Part 2, total N = 18): 2 (11.1)
Lipase increased, n (%) (Part 2, total N = 18): 0
Myalgia, n (%) (Part 2, total N = 18): 0
Nasopharyngitis, n (%) (Part 2, total N = 18): 0
Nausea, n (%) (Part 2, total N = 18): 0
Oropharyngeal pain, n (%) (Part 2, total N = 18): 0
Paresthesia, n (%) (Part 2, total N = 18): 2 (11.1)
Regurgitation, n (%) (Part 2, total N = 18): 2 (11.1)
Skin irritation, n (%) (Part 2, total N = 18): 0
Skin reaction, n (%) (Part 2, total N = 18): 2 (11.1)
Somnolence, n (%) (Part 2, total N = 18): 1 (5.6)
Vertigo, n (%) (Part 2, total N = 18): 0
Vessel puncture site hematoma, n (%) (Part 2, total N = 18): 1 (5.6)
Vision blurred, n (%) (Part 2, total N = 18): 1 (5.6)
serious TEAEs (Parts 1 and 2): No serious TEAEs
severity of TEAEs (Parts 1 and 2): mild to moderate
